Consider 15 compounds from ChEMBL document CHEMBL1201862, “PubChem BioAssay data set” (2004).

Usually IC50 stands for the concentration needed to halve the response being measured. As a reminder, the EC50 is the concentration at which the effect is half-maximal. The CC50 is the concentration at which the toxic effect on the cells reaches its halfway point. Usually AC50 stands for the midpoint of the concentration-response curve, whichever way the signal moves.

The target in assay [1] is Melanin-concentrating hormone receptor 1 (Homo sapiens, UniProt Q99705). Briefly: Late-stage fluorescence-based counterscreen for antagonists of the G-protein coupled receptor 7 (GPR7): cell-based dose response assay to identify antagonists of the melanin-concentrating hormone receptor 1 (MCHR1). [Related pubchem assays (depositor defined):AID1861, AID1880, AID1952, AID2148, AID2251, AID2257, AID485339]. The class given is functional. Background: A counterscreen serves to expose hits that act by an unwanted route or on another target.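 Also: stimulated with 30 nM MCH peptide agonist.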
Chain of Melanin-concentrating hormone receptor 1 (Q99705 whole entry): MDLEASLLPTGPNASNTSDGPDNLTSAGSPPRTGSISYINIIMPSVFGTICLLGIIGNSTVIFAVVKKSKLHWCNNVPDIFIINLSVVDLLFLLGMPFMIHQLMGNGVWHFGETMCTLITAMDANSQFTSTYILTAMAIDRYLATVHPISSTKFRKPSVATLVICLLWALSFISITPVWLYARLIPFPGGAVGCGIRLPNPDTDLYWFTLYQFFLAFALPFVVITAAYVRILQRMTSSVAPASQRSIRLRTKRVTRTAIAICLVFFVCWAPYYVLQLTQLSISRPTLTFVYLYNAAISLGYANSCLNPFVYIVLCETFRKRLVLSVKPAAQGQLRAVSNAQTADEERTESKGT

The target of assay [2] is T1, Neuropeptides B/W receptor type 1 (Homo sapiens, UniProt P48145).
T1 sequence (P48145 whole entry): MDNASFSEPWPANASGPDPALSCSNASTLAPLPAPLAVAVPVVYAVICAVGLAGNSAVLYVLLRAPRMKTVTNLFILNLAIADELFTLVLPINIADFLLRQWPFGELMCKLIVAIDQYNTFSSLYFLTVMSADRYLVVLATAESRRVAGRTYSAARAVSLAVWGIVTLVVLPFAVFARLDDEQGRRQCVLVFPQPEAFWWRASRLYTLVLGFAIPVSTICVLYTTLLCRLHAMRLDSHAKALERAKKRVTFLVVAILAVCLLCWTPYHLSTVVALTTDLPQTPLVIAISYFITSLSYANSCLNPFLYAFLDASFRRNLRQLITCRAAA
The experiment in a line: human NPBW1 receptor blockade, IC50 – cell-based, fluorescence, dose response, late-stage follow-up (AID 463251). It counts as functional.

Assay [3] has as its target T2, Eukaryotic translation initiation factor 2-alpha kinase 3 (Homo sapiens, UniProt Q9NZJ5).
T2 sequence (Q9NZJ5 whole entry): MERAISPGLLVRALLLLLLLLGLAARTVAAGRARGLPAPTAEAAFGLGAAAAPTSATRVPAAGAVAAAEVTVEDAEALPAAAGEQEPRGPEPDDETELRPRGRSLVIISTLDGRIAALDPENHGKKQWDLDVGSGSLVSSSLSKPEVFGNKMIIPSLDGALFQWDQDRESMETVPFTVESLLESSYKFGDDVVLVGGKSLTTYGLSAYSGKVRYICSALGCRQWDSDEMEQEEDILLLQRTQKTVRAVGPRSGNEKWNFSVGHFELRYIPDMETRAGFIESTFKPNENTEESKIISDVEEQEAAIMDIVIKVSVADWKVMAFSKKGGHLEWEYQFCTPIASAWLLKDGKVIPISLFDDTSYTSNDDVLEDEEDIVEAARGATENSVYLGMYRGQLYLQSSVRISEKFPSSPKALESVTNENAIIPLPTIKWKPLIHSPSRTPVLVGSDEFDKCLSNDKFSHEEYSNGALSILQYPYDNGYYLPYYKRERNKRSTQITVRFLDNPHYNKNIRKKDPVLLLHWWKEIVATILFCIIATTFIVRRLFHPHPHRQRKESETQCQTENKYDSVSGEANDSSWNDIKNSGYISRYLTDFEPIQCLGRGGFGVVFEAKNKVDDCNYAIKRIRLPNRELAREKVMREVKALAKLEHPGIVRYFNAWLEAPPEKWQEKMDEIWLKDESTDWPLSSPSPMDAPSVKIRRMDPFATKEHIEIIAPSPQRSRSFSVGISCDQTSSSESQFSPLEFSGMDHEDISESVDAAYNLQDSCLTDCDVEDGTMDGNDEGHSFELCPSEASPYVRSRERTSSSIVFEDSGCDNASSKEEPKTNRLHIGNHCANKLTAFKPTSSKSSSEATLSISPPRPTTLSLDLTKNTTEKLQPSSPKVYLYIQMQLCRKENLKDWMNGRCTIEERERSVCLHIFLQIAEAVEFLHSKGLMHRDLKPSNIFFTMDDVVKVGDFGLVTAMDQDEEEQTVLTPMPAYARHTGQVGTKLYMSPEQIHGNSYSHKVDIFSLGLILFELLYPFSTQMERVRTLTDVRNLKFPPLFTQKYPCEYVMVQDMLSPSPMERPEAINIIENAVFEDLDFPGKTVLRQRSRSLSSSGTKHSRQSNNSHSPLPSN
Briefly: Dose response cell-based high-throughput screening assay to measure PERK inhibition. [Related pubchem assays: 1416 ]. It counts as functional.

In assay [4] the target is T2, Eukaryotic translation initiation factor 2-alpha kinase 3. The experiment in a line: Counterscreen assay for PERK inhibitors: Dose response cell-based high throughput screening assay to measure inhibition of PERK at 6 hours. [Related pubchem assays: 1522, 1416 ]. It counts as functional.
The target of assay [5] is G-protein coupled receptor 35 (Homo sapiens, UniProt Q9HC97). Briefly: inhibition of zaprinast-stimulated GPR35 beta-arrestin translocation – imaging, U2OS, beta-arrestin-GFP, zaprinast agonist, primary screen (AID 2058).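 Also: antagonist potency meaning inhibition of agonist-induced arrestin redistribution.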 The class given is functional.
Assay [6] is described as follows: THP-1 cell cytotoxicity, dose response, cytotoxicity control for non-replicating M. tuberculosis project (AID 489025). It counts as functional.
A short description of assay [7]: cells. The class given is functional.
In assay [8] the target is T3, Mitochondrial peptide methionine sulfoxide reductase (Bos taurus, UniProt P54149).
T3 sequence (P54149 whole entry): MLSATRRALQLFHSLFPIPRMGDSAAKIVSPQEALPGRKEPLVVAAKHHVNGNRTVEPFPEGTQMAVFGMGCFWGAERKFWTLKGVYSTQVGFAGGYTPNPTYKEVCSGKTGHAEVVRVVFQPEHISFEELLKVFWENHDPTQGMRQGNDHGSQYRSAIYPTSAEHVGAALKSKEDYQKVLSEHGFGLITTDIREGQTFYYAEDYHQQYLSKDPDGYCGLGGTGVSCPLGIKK
The experiment in a line: Absorbance-based biochemical high throughput dose response assay for activators of Methionine sulfoxide reductase A (MsrA). It counts as functional.

For assay [9], the target named is T4, Neuropeptide Y receptor type 2 (Homo sapiens, UniProt P49146).
T4 sequence (P49146 whole entry): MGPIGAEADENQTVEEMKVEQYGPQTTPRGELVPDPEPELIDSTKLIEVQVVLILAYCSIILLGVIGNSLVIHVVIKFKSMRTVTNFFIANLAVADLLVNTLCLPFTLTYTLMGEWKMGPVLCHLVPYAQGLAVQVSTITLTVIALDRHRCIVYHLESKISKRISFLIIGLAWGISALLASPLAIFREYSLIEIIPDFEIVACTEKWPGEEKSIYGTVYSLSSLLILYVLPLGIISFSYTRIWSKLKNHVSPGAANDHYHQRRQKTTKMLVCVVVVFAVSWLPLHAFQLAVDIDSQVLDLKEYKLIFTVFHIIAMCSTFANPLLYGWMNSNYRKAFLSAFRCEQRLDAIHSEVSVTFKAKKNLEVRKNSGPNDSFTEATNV
Briefly: IC50 for human NPY-Y2 blockade – cell-based, counter-screen for NPY-Y1 antagonist project, dose response (AID 1278). It counts as functional.

Assay [10] deals with T5, Neuropeptide Y receptor type 1 (Homo sapiens, UniProt P25929).
T5 sequence (P25929 whole entry): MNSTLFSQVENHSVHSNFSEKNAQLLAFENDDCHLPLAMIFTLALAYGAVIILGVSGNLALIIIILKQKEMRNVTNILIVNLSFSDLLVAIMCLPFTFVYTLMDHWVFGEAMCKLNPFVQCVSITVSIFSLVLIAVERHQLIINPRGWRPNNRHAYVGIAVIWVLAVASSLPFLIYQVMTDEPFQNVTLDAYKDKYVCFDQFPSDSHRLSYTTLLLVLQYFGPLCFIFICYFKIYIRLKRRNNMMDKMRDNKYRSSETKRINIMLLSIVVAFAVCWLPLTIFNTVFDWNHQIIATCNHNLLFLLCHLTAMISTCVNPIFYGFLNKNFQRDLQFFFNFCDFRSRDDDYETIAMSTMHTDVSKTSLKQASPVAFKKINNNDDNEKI
Briefly: IC50 of human NPY-Y1 blockers – cell-based, dose response (AID 1277). The class given is functional.

Assay [11] can be described thus: Luminescence Cell-Based Dose Retest to Confirm Inhibitors of Cancer Stem Cells. [Related pubchem assays (depositor defined):AID2717, AID2721]. It counts as functional. The settings on record: Homo sapiens.
Assay [12] concerns the target Trypsin (Sus scrofa, UniProt P00761). The experiment in a line: trypsin protease activity blockade – biochemical, quenched peptide fluorescence, cherry-pick, selectivity assay for Rce1 protease inhibitor project, dose response (AID 488789).
The target of assay [13] is T6, CAAX prenyl protease 2 (Saccharomyces cerevisiae S288c, UniProt Q03530).
T6 sequence (Q03530 whole entry): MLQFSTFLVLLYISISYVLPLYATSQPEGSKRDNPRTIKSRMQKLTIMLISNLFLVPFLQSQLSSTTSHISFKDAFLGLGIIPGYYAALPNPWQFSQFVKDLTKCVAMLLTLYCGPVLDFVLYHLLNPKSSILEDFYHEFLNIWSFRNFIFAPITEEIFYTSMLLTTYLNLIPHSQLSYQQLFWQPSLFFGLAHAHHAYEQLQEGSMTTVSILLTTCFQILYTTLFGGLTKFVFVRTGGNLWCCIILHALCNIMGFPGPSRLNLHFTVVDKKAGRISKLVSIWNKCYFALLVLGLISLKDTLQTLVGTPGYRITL
The class given is biochemical.

For assay [14], the target named is Peroxisome proliferator-activated receptor gamma/Nuclear receptor coactivator 2 (Homo sapiens, UniProt P37231). The class given is functional.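 Also: agonist potency for raising coactivator recruitment to the receptor.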
The target in assay [15] is Peroxisome proliferator-activated receptor gamma/Nuclear receptor coactivator 1 (Homo sapiens, UniProt P37231). The class given is functional.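 Also: agonist potency as compounds enhance coactivator SRC-1 recruitment to PPARgamma.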
Chain of Peroxisome proliferator-activated receptor gamma/Nuclear receptor coactivator 1 (P37231 whole entry): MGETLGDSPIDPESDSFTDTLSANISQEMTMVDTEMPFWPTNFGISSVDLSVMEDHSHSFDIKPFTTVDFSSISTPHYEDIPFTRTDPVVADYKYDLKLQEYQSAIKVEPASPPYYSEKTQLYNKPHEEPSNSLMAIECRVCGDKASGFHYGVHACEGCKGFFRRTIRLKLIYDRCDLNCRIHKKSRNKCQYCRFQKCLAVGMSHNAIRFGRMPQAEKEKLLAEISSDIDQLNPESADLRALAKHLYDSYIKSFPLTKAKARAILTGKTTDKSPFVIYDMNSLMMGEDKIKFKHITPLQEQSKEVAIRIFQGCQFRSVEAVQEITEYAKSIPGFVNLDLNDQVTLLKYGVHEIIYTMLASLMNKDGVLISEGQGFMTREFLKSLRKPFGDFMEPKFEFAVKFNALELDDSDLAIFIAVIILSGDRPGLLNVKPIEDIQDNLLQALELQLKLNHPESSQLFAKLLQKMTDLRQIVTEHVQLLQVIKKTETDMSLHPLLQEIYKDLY
Chain of Peroxisome proliferator-activated receptor gamma/Nuclear receptor coactivator 1 (Q15788 whole entry, further chain): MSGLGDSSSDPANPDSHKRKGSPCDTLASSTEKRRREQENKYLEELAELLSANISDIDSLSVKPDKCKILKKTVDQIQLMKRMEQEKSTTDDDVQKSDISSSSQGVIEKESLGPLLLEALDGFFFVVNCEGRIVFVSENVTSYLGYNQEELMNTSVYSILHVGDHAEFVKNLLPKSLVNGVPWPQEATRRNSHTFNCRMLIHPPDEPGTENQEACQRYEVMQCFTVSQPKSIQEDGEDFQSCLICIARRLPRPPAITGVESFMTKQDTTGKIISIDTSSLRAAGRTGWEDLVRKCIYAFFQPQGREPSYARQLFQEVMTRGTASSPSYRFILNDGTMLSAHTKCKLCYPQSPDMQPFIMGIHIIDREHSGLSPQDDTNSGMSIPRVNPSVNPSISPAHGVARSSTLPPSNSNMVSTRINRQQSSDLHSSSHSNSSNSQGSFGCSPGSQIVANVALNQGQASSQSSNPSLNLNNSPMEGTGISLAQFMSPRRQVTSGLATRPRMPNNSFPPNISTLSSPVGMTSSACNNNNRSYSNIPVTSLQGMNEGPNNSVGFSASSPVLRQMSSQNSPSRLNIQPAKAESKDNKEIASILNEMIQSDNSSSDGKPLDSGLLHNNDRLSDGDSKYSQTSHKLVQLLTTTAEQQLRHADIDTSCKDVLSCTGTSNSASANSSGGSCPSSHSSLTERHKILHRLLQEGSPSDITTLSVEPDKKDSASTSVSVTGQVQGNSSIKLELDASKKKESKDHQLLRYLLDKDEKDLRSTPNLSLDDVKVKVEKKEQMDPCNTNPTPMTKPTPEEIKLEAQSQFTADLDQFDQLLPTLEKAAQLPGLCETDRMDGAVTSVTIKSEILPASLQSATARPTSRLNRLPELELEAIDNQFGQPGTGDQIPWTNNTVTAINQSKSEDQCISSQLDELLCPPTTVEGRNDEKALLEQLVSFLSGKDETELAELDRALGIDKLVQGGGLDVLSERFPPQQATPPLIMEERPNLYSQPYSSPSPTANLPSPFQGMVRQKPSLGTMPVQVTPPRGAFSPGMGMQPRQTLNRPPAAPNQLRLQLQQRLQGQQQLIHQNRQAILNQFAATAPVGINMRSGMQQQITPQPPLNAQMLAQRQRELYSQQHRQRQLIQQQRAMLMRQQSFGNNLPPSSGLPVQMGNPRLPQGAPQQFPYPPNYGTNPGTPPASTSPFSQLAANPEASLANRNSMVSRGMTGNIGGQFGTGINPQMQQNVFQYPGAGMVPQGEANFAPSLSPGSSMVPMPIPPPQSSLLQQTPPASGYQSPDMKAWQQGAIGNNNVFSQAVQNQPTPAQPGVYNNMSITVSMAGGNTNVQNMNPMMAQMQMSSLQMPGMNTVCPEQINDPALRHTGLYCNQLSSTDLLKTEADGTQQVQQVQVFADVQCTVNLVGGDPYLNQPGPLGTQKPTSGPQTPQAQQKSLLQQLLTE
For assay [16], the target named is Peroxisome proliferator-activated receptor gamma/Nuclear receptor coactivator 3 (Homo sapiens, UniProt P37231). It counts as functional.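 Also: agonist potency for raising coactivator recruitment to the receptor.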
Chain of Peroxisome proliferator-activated receptor gamma/Nuclear receptor coactivator 3 (P37231 whole entry): as the sequence (P37231 whole entry) above
Chain of Peroxisome proliferator-activated receptor gamma/Nuclear receptor coactivator 3 (Q9Y6Q9 whole entry, further chain): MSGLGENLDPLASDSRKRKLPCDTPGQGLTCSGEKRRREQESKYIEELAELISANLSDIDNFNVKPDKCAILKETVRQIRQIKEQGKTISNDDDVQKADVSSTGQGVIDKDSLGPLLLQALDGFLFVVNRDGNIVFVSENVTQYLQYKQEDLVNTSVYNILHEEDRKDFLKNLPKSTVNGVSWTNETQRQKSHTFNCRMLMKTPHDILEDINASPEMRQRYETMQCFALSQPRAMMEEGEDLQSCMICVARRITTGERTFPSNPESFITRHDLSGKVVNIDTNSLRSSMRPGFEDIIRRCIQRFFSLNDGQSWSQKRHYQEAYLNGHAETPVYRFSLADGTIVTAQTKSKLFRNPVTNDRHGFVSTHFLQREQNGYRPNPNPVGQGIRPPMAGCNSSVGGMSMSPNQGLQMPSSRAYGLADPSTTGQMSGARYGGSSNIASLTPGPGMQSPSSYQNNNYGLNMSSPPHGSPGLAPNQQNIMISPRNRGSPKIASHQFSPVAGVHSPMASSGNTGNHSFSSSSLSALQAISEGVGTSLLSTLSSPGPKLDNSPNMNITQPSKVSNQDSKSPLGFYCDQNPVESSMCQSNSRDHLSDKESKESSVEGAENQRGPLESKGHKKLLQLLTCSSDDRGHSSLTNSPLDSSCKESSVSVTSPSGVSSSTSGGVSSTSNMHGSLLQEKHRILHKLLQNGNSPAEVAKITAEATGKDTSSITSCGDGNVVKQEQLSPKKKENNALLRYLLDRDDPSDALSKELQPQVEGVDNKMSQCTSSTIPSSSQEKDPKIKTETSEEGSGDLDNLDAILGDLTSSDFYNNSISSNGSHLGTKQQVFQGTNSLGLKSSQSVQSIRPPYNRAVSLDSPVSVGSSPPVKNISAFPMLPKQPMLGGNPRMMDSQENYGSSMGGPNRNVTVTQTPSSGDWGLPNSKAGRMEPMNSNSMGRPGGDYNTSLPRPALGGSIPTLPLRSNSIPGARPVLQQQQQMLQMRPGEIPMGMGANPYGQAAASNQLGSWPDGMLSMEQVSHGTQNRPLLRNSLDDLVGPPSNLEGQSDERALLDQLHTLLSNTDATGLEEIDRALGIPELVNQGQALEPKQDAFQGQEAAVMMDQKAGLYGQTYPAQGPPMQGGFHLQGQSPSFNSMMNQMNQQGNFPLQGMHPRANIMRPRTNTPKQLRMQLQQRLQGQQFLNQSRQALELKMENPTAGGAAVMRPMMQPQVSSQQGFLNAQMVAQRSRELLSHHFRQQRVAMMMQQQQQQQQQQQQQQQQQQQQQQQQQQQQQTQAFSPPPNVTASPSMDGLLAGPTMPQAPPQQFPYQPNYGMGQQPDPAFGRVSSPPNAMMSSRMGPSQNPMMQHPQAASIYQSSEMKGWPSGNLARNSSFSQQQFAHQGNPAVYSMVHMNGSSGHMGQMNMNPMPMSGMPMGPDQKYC
Assay [17] has as its target Aspartyl aminopeptidase (Plasmodium falciparum 3D7, UniProt Q8I2J3).
In assay [18] the target is Procathepsin L (Homo sapiens, UniProt P07711).
The nature of assay [19]: HEK-293T cell viability reduction – luminescence, B-cell screen hits, cytotoxicity control for BCR NF-kB inhibitor project, dose response (AID 489021).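 Also: HEK-293T cells carrying an NF-kB luciferase reporter; cells exposed to compound for about 14 hours before viability readout.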 It counts as functional, cell-based.
The target of assay [20] is T7, Voltage-gated N-type calcium channel alpha-1B subunit/Amyloid beta A4 precursor protein-binding family A member 1 (Homo sapiens, UniProt Q00975+Q02410). It counts as protein assay.
The target of assay [21] is T7, Voltage-gated N-type calcium channel alpha-1B subunit/Amyloid beta A4 precursor protein-binding family A member 1. It counts as protein assay. This is another data set of the same source.
In assay [22] the target is Glyceraldehyde-3-phosphate dehydrogenase (Homo sapiens, UniProt P04406).

Activity calls are given as the source filed them.

Chain of Aspartyl aminopeptidase (Q8I2J3 whole entry): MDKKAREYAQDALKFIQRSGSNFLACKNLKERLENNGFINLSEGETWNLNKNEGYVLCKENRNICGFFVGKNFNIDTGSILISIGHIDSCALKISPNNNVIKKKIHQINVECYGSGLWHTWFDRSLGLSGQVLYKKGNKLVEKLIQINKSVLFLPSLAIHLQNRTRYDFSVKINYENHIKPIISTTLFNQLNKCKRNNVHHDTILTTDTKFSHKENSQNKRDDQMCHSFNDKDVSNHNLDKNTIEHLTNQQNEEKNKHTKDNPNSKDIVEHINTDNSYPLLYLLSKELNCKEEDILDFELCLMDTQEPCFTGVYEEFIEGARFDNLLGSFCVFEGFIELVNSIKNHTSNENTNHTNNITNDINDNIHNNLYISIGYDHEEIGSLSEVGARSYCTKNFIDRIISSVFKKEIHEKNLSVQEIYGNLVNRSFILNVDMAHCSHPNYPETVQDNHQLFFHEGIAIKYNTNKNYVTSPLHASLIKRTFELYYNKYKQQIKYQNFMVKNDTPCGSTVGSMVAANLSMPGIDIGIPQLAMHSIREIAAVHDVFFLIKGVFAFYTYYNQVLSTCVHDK
Chain of Trypsin (P00761 whole entry): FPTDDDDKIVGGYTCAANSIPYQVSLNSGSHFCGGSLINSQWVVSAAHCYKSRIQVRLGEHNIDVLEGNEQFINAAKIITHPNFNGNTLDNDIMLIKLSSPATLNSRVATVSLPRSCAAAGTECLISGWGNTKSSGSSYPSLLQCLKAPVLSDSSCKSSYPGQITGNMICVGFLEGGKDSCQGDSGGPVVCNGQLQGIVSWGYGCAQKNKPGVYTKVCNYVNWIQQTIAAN

On to `COc1ccc(Oc2c(N3CCCCC3)cnn(-c3ccc(C(C)C)cc3)c2=O)cc1`, for which the figures for the IC50 in assay [1] and in [2] were 5.7 µM (active) and > 20 µM (inactive), respectively.
For `COc1ccc(Oc2c(-c3ccccc3)cnn(-c3ccc(C)cc3)c2=O)cc1`, the IC50 in [1] is 20 µM (inactive); in assay [2], > 20 µM (inactive).
For the compound `C/N=C1\SC(CC(=O)Nc2ccccc2F)C(=O)N1C` (centres undefined), the EC50 in assay [3] and in assay [4] was > 55.7 µM (not active) each time.
On to `CCN(CC)c1ccc(-c2sc(Nc3ccccc3)n[n+]2-c2ccc(F)cc2)cc1`, for which the 50% inhibitory concentration (IC50) in assay [5] was 0.626 µM (active); in assay [7], 14 µM (active). In addition, the CC50 in assay [6] was 26.4 µM (active). Besides, the EC50 in assay [8] is > 104 µM (inactive).
`Cc1nc(N2CCCCC2)c2c(C)c(C(=O)Nc3ccccc3C(F)(F)F)sc2n1`: the IC50 in assay [9] is 6.66 µM (active); in assay [10], 7.1 µM (active). For the same compound, the AC50 in assay [11] was 2.18 µM (active); in assay [12], > 100 µM (inactive); in assay [13] it was 13.4 µM (active).
`O=c1cc(Cn2ccnc2)c2cc3c(cc2o1)CCC3`: the 50% effective concentration (EC50) in [14], in assay [15] and in [16] was > 79.4 µM (not active) throughout.
With `CCOC(=O)C1=C(CS(=O)(=O)c2ccc(F)cc2)NC(=O)NC1c1ccc(O)c(O)c1` (centres undefined), the results for the IC50 in [17] and in assay [18] were 1.52 µM (active) and > 59.6 µM (not active), respectively.
For the compound `COc1ccccc1/C=C1\SC(=S)N(CCC(=O)NC2=NCCS2)C1=O`, the IC50 in assay [19] is > 80 µM (inactive).
`CCCCC(O)(CCCC)C(=O)NN(C(=O)OC)c1ccccc1`: the concentration for half-maximal inhibition (IC50) in [9] and in [10] was > 35 µM (not active) in each case.
`Nc1ccc2[nH]c(-c3ccc(N)c(Cl)c3)nc2c1`: the half-inhibitory concentration (IC50) in [20] is 35.6 µM (active); in [21], 4.1 µM (active).
With `CC(C)(C)c1ccc(C(=O)Oc2ccccc2CCC(=O)O)cc1`, the EC50 in [3] and in assay [4] was > 55.7 µM (not active) in each case.
Regarding `O=C(CCSCc1ccccc1Cl)NCc1cccs1`, the half-maximal effective concentration (EC50) in assay [14], in assay [15] and in assay [16] was > 79.4 µM (not active) in each case.
Consider `c1ccc(NCn2cncn2)nc1`, for which the IC50 in assay [17] is 2.56 µM (active); in assay [18] it was > 59.6 µM (not active).
Regarding `COc1cccc(N2C(=O)C(Cl)=C(N(C)C)C2=O)c1`, in [22], the IC50 was > 50 µM (inconclusive).
As to `COc1ccc(-c2ccoc2)cc1[C@H]1[C@H]2C=CC[C@@H](C)[C@@H]2C(=O)N1Cc1ccccc1`, the IC50 in assay [19] is > 80 µM (inactive).
